Experimental data from US11154067B2, “Membrane and method for preservation of produce” (Agricultural Research Council, priority 2015, dated 2021).

Experiments:
Assay type in all cases: in vivo
Conditions in all cases: controlled atmosphere 28 days followed by 7 days at 20° C.
Botrytis cinerea = assay: Postharvest dip trials of apples against Botrytis cinerea
Penicillium expansum = assay: Postharvest dip trials of apples against Penicillium expansum
Neofabraea alba = assay: Postharvest dip trials of apples against Neofabraea alba

CCO [Ethanol]
antimicrobial efficacy indicated as percentage value (Botrytis cinerea; 'Golden Delicious' apples): 13.98% | antimicrobial efficacy indicated as percentage value (Botrytis cinerea; 'Granny Smith' apples): 16.53% | antimicrobial efficacy indicated as percentage value (Botrytis cinerea; 'Pink Lady' apples): 2.88% | antimicrobial efficacy indicated as percentage value (Penicillium expansum; 'Golden Delicious' apples): 18.07% | antimicrobial efficacy indicated as percentage value (Penicillium expansum; 'Granny Smith' apples): 18.75% | antimicrobial efficacy indicated as percentage value (Penicillium expansum; 'Pink Lady' apples): 0.16% | antimicrobial efficacy indicated as percentage value (Neofabraea alba; 'Golden Delicious' apples): 10.41% | antimicrobial efficacy indicated as percentage value (Neofabraea alba; 'Granny Smith' apples): 21.87% | antimicrobial efficacy indicated as percentage value (Neofabraea alba; 'Pink Lady' apples): 19.25%
